One data set deals with NUGC-3 cells. Kind of data set: Anti-proliferation effect on NUGC-3 cells (Cell Counting Kit-8). It counts as cell-based. The settings on record: Homo sapiens, NUGC-3, 120 h; 5 days of treatment. As to the method: Cell line NUGC-3 (JCRB, JCRB0822) was cultured in RPMI 1640 (Invitrogen, 11875-085) medium supplemented with 10% (v/v) fetal bovine serum (BI, 04-002-1A), according to the standard instructions of the American Type Culture Collection. The cell line was authenticated by short tandem repeat profiling.
In the proliferation assay, 1000 NUGC-3 cells were seeded in a 96-well flat clear bottom, TC-treated plate (Corning, 3903) in 200 μL of medium per well, and allowed to recover overnight in culture medium. Compounds were added with increasing concentration, with DMSO treatment serving as a […] control. After 5 days of treatment, the plate was equilibrated to room temperature for 30 minutes, and the number of living cells was measured by the addition of the Cell Counting Kit-8 reagent (MCE, HY-K0301). Absorbance was measured on an Enspire (Perkin elme). The relative viability of each group was presented as the percentage change relative to the […] control group and then fit to a four-parameter logit non-linear curve using the program XLFit (IDBS)
On the technique in general: Tetrazolium assays rely on reduction of a dye to a coloured formazan, in cell work by metabolically active cells.

In the next data set the test system is CYP3A4/5. Kind of data set: Multi-concentration inhibitory activity curve of CYP3A4/5 enzymes. It is filed as in vitro ADME. The settings on record: pH 7.4, probe testosterone; human liver microsomes; substrate testosterone; read-out: CYP3A4/5 IC50 (μM) (Testosterone). On the procedure:
The buffer was filtered through a 0.45 μm filter.
Liver microsome working solution (final system concentration of 0.5 mg/mL) was prepared. […] The above stock solution was diluted with acetonitrile (4-fold dilution, 6 non-zero concentrations).
The half-maximal inhibitory concentration (IC50) was calculated using Graph Pad Prism.
In general terms: Liver microsomes are a subcellular fraction often used to study metabolism.

Data set [1] is described as follows: Metabolic stability test in hepatocytes. It is filed as in vitro ADME. The settings on record: for hepatocyte CLint at 1 μM: read-out: In vitro Clint (μL/min/10^6 cells); for half-life at 1 μM: read-out: In vitro t1/2. On the procedure: The test compound and the control drug verapamil powder were prepared into a high concentration stock solution using DMSO, and diluted to a 100 μM working solution with 50% acetonitrile/water before use, with final concentrations of 1 μM for the test compound and verapamil.
• 1) 49.5 mL of Williams' Medium E and 0.5 mL GlutaMAX were mixed as the incubation solution. The hepatocyte recovery solution and the incubation solution were pre-warmed in a 37° C. water bath for at least 15 minutes prior to use. • 2) A tube of cryopreserved hepatocytes was taken, ensuring that the hepatocytes were still in a cryogenic frozen state prior to resuscitation. The hepatocytes were quickly placed in a 37° C. water bath and gently shaken until all ice crystals were completely dispersed, sprayed with 70% ethanol and transferred to a biosafety cabinet. • 3) The contents of the hepatocyte tube were poured into a centrifuge tube containing 50 mL of recovery medium, which were centrifuged at 100 g for 10 minutes. After centrifugation, the recovery medium was aspirated, and sufficient incubation medium was added to obtain a cell suspension having a cell density of approximately 1.5×10^6 cells/mL. • 4) Cellometer Vision was used to count hepatocytes and determine the density of viable cells. The survival rate of hepatocytes must be greater than 75%. The hepatocyte suspension was diluted with incubation medium to a viable cell density of 0.5×10^6 cells/mL. • 5) A portion of hepatocyte suspension with a density of 0.5×10^6 cells/mL was boiled in water for 5 minutes to inactivate as a negative control. After cells were inactivated, substrate conversion mediated by non-cellular enzymes could be easily investigated.
• 1) 198 μL of the suspension of live or inactivated cells was transferred to a 96-well deep-well plate, which was then placed on a vortexer and preheated in an incubator for 10 minutes. Live cells were incubated in duplicate, while inactivated cells were incubated in single. • 2) 2 μL of 100 μM test compound or verapamil was added to each well for the reaction initiation, and the deep-well plate was placed back on the incubator vortexer. • 3) 25 μL of the suspension were taken from the incubated samples at 0, 15, 30, 60, 90, and 120 minutes, respectively, and added to 150 μL of acetonitrile containing internal standards (200 nM alprazolam, 200 nM labetalol, 2 μM ketoprofen, and 200 nM caffeine) to terminate the reaction. The mixture was vortexed for 10 minutes and centrifuged at 3220 g and 4° C. for 30 minutes. After centrifugation was completed, 100 μL of the supernatant and 100 μL of ultra-pure water were mixed well for UPLC-MS/MS analysis detection.
All data calculations were performed using Microsoft Excel software. Peak areas were detected by extracting the ion chromatogram. The in vitro half-life (t1/2) of the parent drug was detected by linear fitting of the natural logarithm of the percentage of parent drug […] with time.
The in vitro half-life (t1/2) was calculated by the slope: […]
In vitro intrinsic clearance (unit μL/min/10^6 cells) was calculated using the following formula:
[formula] • V=incubation volume per well (0.2 mL); • N=number of cells per well (0.1×10^6 cells)

Data set [2] can be described thus: Metabolic stability in liver microsomes. It counts as in vitro ADME. The settings on record: for microsomal CLint at 1 μM: read-out: In vitro Clint (μL/min/mg protein); for half-life at 1 μM: read-out: In vitro t1/2. As to the method: The test compound and the positive control compound (dextromethorphan as a control compound) were dissolved respectively in DMSO to prepare a stock solution with a concentration of 10 mM, and the above stock solution was diluted into 200 μM working solution with DMSO. 8.709 g of potassium hydrogen phosphate (K2HPO4) was dissolved in 950 mL of water, and the pH value of the solution was adjusted to 7.4 with hydrochloric acid, and then the volume was adjusted to 1000 mL with water. After filtration using a 0.22 μm filter membrane, the mixture was stored in a 4° C. refrigerator for later use. After liver microsomes of various species (protein concentration of 20 mg/mL) were thawed in a 37° C. water bath, the liver microsomes were diluted with a phosphate buffer respectively to obtain a liver microsome working solution with protein concentration of 0.629 mg/mL. 5 mM NADPH solution was prepared using the above phosphate buffer for later use. 1 mg/mL stock solution of terfenadine/tolbutamide was prepared with DMSO and then diluted with a 50% methanol/50% acetonitrile mixed solution to a reaction stop solution containing 5/10 ng/mL (terfenadine/tolbutamide) internal standard.
238.5 μL of liver microsome working solutions of various species were added to a 1.1 mL microtube, and 1.5 μL of the test compound working solution or the positive control compound (dextromethorphan) working solution (200 μM) was added respectively, mixed well, and pre-incubated in a 37° C. water bath for 5 minutes. 60 μL of NADPH solution was added to start the reaction, and after mixing well, at the time points of 0, 5, 15, 30, and 60 minutes after the reaction, 30 μL of the reaction mixture was respectively pipetted and added to 300 μL of the reaction stop solution. Samples from all time points were vortexed vigorously for 1 minute and centrifuged at 4000 rpm for 15 minutes at 4° C. 100 μL of the supernatant was added to 100 μL of pure water and mixed well for LC-MS/MS analysis.
The slope (ke) was determined by plotting the natural logarithm of the percentage of compound remaining against time, and the Tin and intrinsic clearance (CLint) were calculated based on the first-order kinetic formula: […]
The compound remaining rate is calculated as follows:
Intrinsic clearance CLint (μL/min/mg protein)=0.693*1000/T1/2/protein concentration (0.5 mg protein/mL)

Where [3] appears, read: cryopreserved hepatocytes, Human hepatocytes.
Setting [4] is: cryopreserved hepatocytes, Mouse hepatocytes.
Where [5] appears, read: cryopreserved hepatocytes, Rat hepatocytes.
Where [6] appears, read: ICR/CD-1, pH 7.4, Mouse liver microsomes.
Setting [7] is: Sprague Dawley, pH 7.4, Rat liver microsomes.
The mark [8] stands for this setting: cryopreserved hepatocytes in suspension, Human hepatocytes.
Where [9] appears, read: cryopreserved hepatocytes in suspension, Mouse hepatocytes.
[10] abbreviates: cryopreserved hepatocytes in suspension, Rat hepatocytes.

This is an account of results in patent US20250304578A1, “NITROGEN-CONTAINING FUSED HETEROCYCLIC COMPOUNDS OF N-SULFONAMIDE AND USE THEREOF” (NUTSHELL THERAPEUTICS (SHANGHAI) CO., LTD., priority 2023, published 2025).

The structures appear in SMILES notation. Where two headings read alike, the source gives them in different places.

For the molecule `[2H]C([2H])([2H])Oc1nc(C(=O)NS(=O)(=O)C2CC2)ccc1NCC#Cc1cc2c(N[C@@H]3CCN(C)C[C@@H]3F)cccn2c1CC(F)(F)F` [Cpd-4, N-(Cyclopropylsulfonyl)-5-((3-(8-(((3S,4R)-3-fluoro-1-methylpiperidin-4-yl)amino)-3-(2,2,2-trifluoroethyl)indolizin-2-yl)prop-2-yn-1-yl)amino)-6-(methoxy-d3)picolinamide], the IC50 in the data set on NUGC-3 cells is 97 nM.

`[2H]C([2H])([2H])Oc1nc(C(=O)NS(=O)(=O)CC2CC2)ccc1NCC#Cc1cc2c(N[C@@H]3CCN(C)C[C@@H]3F)cccn2c1CC(F)(F)F` [Cpd-5, N-((Cyclopropylmethyl)sulfonyl)-5-((3-(8-(((3S,4R)-3-fluoro-1-methylpiperidin-4-yl)amino)-3-(2,2,2-trifluoroethyl)indolizin-2-yl)prop-2-yn-1-yl)amino)-6-(methoxy-d3)picolinamide] registered an IC50 in the data set with NUGC-3 cells of 81 nM.

For the molecule `[2H]C([2H])([2H])Oc1nc(C(=O)NS(=O)(=O)CC(F)(F)F)ccc1NCC#Cc1cc2c(N[C@@H]3CCN(C)C[C@@H]3F)cccn2c1CC(F)(F)F` [Cpd-6, 5-((3-(8-(((3S,4R)-3-Fluoro-1-methylpiperidin-4-yl)amino)-3-(2,2,2-trifluoroethyl)indolizin-2-yl)prop-2-yn-1-yl)amino)-6-(methoxy-d3)-N-((2,2,2-trifluoroethyl)sulfonyl)picolinamide], in the data set on NUGC-3 cells, the IC50 turned out to be 190 nM.

In turn, `COc1nc(C(=O)NS(=O)(=O)C2CC2)ccc1NCC#Cc1cc2c(N[C@@H]3CCN(C)C[C@@H]3F)cccn2c1CC(F)(F)F` [Cpd-7, N-(Cyclopropylsulfonyl)-5-((3-(8-(((3S,4R)-3-fluoro-1-methylpiperidin-4-yl)amino)-3-(2,2,2-trifluoroethyl)indolizin-2-yl)prop-2-yn-1-yl)amino)-6-methoxypicolinamide] yielded an IC50 in the data set with NUGC-3 cells of 70 nM.

In the data set on NUGC-3 cells, `[2H]C([2H])([2H])Oc1nc(C(=O)NS(C)(=O)=O)ccc1NCC#Cc1cc2c(N[C@H]3CCN(C)C[C@H]3F)cccn2c1CC(F)(F)F` [Cpd-8, 5-((3-(8-(((3R,4S)-3-Fluoro-1-methylpiperidin-4-yl)amino)-3-(2,2,2-trifluoroethyl)indolizin-2-yl)prop-2-yn-1-yl)amino)-6-(methoxy-d3)-N-(methylsulfonyl)picolinamide] came in with an IC50 of 340 nM.

In the data set on NUGC-3 cells, `[2H]C([2H])([2H])Oc1nc(C(=O)NS(C)(=O)=O)ccc1NCC#Cc1cc2c(N[C@H]3CCN(C)C[C@@H]3F)cccn2c1CC(F)(F)F` [Cpd-9, 5-((3-(8-(((3S,4S)-3-Fluoro-1-methylpiperidin-4-yl)amino)-3-(2,2,2-trifluoroethyl)indolizin-2-yl)prop-2-yn-1-yl)amino)-6-(methoxy-d3)-N-(methylsulfonyl)picolinamide] came in with an IC50 of 550 nM.

Molecule `[2H]C([2H])([2H])Oc1nc(C(=O)NS(C)(=O)=O)ccc1NCC#Cc1cc2c(N[C@@H]3CCN(C)C[C@H]3F)cccn2c1CC(F)(F)F` [Cpd-10, 5-((3-(8-(((3R,4R)-3-Fluoro-1-methylpiperidin-4-yl)amino)-3-(2,2,2-trifluoroethyl)indolizin-2-yl)prop-2-yn-1-yl)amino)-6-(methoxy-d3)-N-(methylsulfonyl)picolinamide] returned an IC50 in the data set on NUGC-3 cells of 900 nM.

For the molecule `COc1cc(S(C)(=O)=O)ccc1NCC#Cc1nc2c(N[C@@H]3CCN(C)C[C@@H]3F)cccn2c1CC(F)(F)F` [Cpd-B, reference compound], the IC50 at 10 min in the data set on CYP3A4/5 came to 3.2 µM. Also, the hepatocyte CLint at 1 μM in data set [1] (setting [3]) is 16.8 µL/min/1e6 cells; in data set [1] (setting [4]) it was 198 µL/min/1e6 cells; in data set [1] (setting [5]), 63.8 µL/min/1e6 cells. The half-life at 1 μM in data set [1] (setting [3]) was 82 min; in data set [1] (setting [4]), 7 min; in data set [1] (setting [5]) it was 22 min.

Consider `CNC(=O)c1ccc(NCC#Cc2cc3c(N[C@@H]4CCN(C)C[C@@H]4F)cccn3c2CC(F)(F)F)c(OC)c1` [Cpd-C, 4-((3-(8-(((3S,4R)-3-Fluoro-1-methylpiperidin-4-yl)amino)-3-(2,2,2-trifluoroethyl)indolizin-2-yl)prop-2-yn-1-yl)amino)-3-methoxy-N-methylbenzamide, reference compound], for which the microsomal CLint at 1 μM in data set [2] (setting [6]) was found to be 83.9 µL/min/mg; in data set [2] (setting [7]), 61.5 µL/min/mg; in data set [2] (pH 7.4, Human liver microsomes), 28.3 µL/min/mg. Also, the half-life at 1 μM came to 17 min in data set [2] (setting [6]); 23 min in data set [2] (setting [7]); 49 min in data set [2] (pH 7.4, Human liver microsomes); 75 min in data set [1] (setting [8]); 44 min in data set [1] (setting [9]); 88 min in data set [1] (setting [10]). For the same molecule, the figures for the hepatocyte CLint at 1 μM in data set [1] (setting [8]), in data set [1] (setting [9]) and in data set [1] (setting [10]) were 18.4 µL/min/1e6 cells, 31.8 µL/min/1e6 cells and 15.7 µL/min/1e6 cells, respectively.
